Measured values published in US20260035359A1, “HERBICIDAL IMIDAZOLE COMPOUNDS” (SYNGENTA CROP PROTECTION AG, priority 2022, published 2026).

Tests used:
Assay type in all cases: in vivo
[1] = test system: Echinochloa crus-gali (ECHCG); assay: Post-emergence herbicidal glasshouse test; settings: 250 g/ha, sprayed after 8 days cultivation, evaluated after 13 days
Description: (§1) Seeds of a variety of test species are sown in standard soil in pots Amaranthus pa/meri (AMAPA), Amaranthus retoflexus (AMARE), Echinochloa crus-gali (ECHCG), Ipomoea hederacea (IPOHE), Setaria faberi (SETFA). After cultivation for one day (pre-emergence) or after 8 days cultivation (post-emergence) under controlled conditions in a glasshouse (at 24/16° C., day/night; 14 hours light; 65% humidity), the plants are sprayed with an aqueous spray solution derived from the formulation of the technical active ingredient in acetone/water (50:50) solution containing 0.5% Tween 20 (polyoxyethelyene sorbitan monolaurate, CAS RN 9005-64-5). Compounds are applied at 250 g/ha unless otherwise stated. The test plants are then grown in a glasshouse under controlled conditions in a glasshouse (at 24/16° C., day/night; 14 hours light; 65% humidity) and watered twice daily. After 13 days for pre and post-emergence, the test is evaluated for the percentage damage caused to the plant. The biological activities are shown in the following table on a five-point scale (5=81-100%; 4=61-80%; 3=41-60%; 2=21-40%; 1=0-20%).

[2] = test system: Ipomoea hederacea (IPOHE); assay: Post-emergence herbicidal glasshouse test; settings: 250 g/ha, sprayed after 8 days cultivation, evaluated after 13 days
Description: as §1

[3] = test system: Amaranthus pa/meri (AMAPA); assay: Post-emergence herbicidal glasshouse test; settings: 250 g/ha, sprayed after 8 days cultivation, evaluated after 13 days
Description: as §1

[4] = test system: Amaranthus retoflexus (AMARE); assay: Post-emergence herbicidal glasshouse test; settings: 250 g/ha, sprayed after 8 days cultivation, evaluated after 13 days
Description: as §1

[5] = test system: Echinochloa crus-gali (ECHCG); assay: Pre-emergence herbicidal glasshouse test; settings: 250 g/ha, sprayed after one day cultivation, evaluated after 13 days
Description: as §1

[6] = test system: Ipomoea hederacea (IPOHE); assay: Pre-emergence herbicidal glasshouse test; settings: 250 g/ha, sprayed after one day cultivation, evaluated after 13 days
Description: as §1

[7] = test system: Amaranthus pa/meri (AMAPA); assay: Pre-emergence herbicidal glasshouse test; settings: 250 g/ha, sprayed after one day cultivation, evaluated after 13 days
Description: as §1

[8] = test system: Amaranthus retoflexus (AMARE); assay: Pre-emergence herbicidal glasshouse test; settings: 250 g/ha, sprayed after one day cultivation, evaluated after 13 days
Description: as §1

| Structure (SMILES) | percentage damage caused to the plant, ECHCG [1] | percentage damage caused to the plant, IPOHE [2] | percentage damage caused to the plant, AMAPA [3] | percentage damage caused to the plant, AMARE [4] | percentage damage caused to the plant, ECHCG [5] | percentage damage caused to the plant, IPOHE [6] | percentage damage caused to the plant, AMAPA [7] | percentage damage caused to the plant, AMARE [8] |
| --- | --- | --- | --- | --- | --- | --- | --- | --- |
| CCCCCc1nc(C(F)(F)F)cn1Cc1ncc(C#N)cn1 [Compound 1.015] | 1 (1=0-20%) | 3 (3=41-60%) | 1 (1=0-20%) | 2 (2=21-40%) | 1 (1=0-20%) | 2 (2=21-40%) | 4 (4=61-80%) | 4 (4=61-80%) |
| CCCCc1nc(C(F)(F)F)cn1Cc1ncc(F)cn1 [Compound 1.077, 2-[[2-butyl-4-(trifluoromethyl)imidazol-1-yl]methyl]-5-fluoro-pyrimidine] | 1 (1=0-20%) | 3 (3=41-60%) | 2 (2=21-40%) | 3 (3=41-60%) | 1 (1=0-20%) | 5 (5=81-100%) | 5 (5=81-100%) | 5 (5=81-100%) |
| ON=CCCc1nc(C(F)(F)F)cn1Cc1ncc(Cl)cn1 (single isomer, unassigned) [Compound 1.005] | 1 (1=0-20%) | 2 (2=21-40%) | 3 (3=41-60%) | 3 (3=41-60%) | 1 (1=0-20%) | 1 (1=0-20%) | 1 (1=0-20%) | 1 (1=0-20%) |
| C#CCON=CCCc1nc(C(F)(F)F)cn1Cc1ncc(Cl)cn1 (single isomer, unassigned) [Compound 1.028] | 2 (2=21-40%) | 2 (2=21-40%) | 4 (4=61-80%) | 5 (5=81-100%) | 1 (1=0-20%) | 4 (4=61-80%) | 5 (5=81-100%) | 5 (5=81-100%) |
| CCCCc1nc(C(F)(F)F)cn1Cc1ccc(C#N)cn1 [Compound 1.056] | 1 (1=0-20%) | 2 (2=21-40%) | 2 (2=21-40%) | 2 (2=21-40%) | 1 (1=0-20%) | 2 (2=21-40%) | 4 (4=61-80%) | 4 (4=61-80%) |
| O=S(=O)(CCC(F)(F)F)c1nc(C(F)F)cn1Cc1ncc(Cl)cn1 [Compound 1.009] | 1 (1=0-20%) | 1 (1=0-20%) | 1 (1=0-20%) | 1 (1=0-20%) | 1 (1=0-20%) | 2 (2=21-40%) | 1 (1=0-20%) | 1 (1=0-20%) |
| CCCCc1nc(I)c(I)n1Cc1ncc(Cl)cn1 [Compound 1.078] | 1 (1=0-20%) | 1 (1=0-20%) | 2 (2=21-40%) | 2 (2=21-40%) | 1 (1=0-20%) | 1 (1=0-20%) | 1 (1=0-20%) | 1 (1=0-20%) |
| CCCCc1nc(C(F)(F)F)cn1Cc1ccc(Cl)cn1 [Compound 1.055] | 1 (1=0-20%) | 1 (1=0-20%) | 1 (1=0-20%) | 1 (1=0-20%) | 1 (1=0-20%) | 3 (3=41-60%) | 1 (1=0-20%) | 1 (1=0-20%) |
| FC(F)c1cn(Cc2ncc(Cl)cn2)c(SCCC(F)(F)F)n1 [Compound 1.012] | 1 (1=0-20%) | 2 (2=21-40%) | 1 (1=0-20%) | 1 (1=0-20%) | 1 (1=0-20%) | 1 (1=0-20%) | 1 (1=0-20%) | 1 (1=0-20%) |
| FC(F)(F)c1cn(Cc2ncc(Cl)cn2)c(CCC=NOCC2CC2)n1 (single isomer, unassigned) [Compound 1.006] | 1 (1=0-20%) | 2 (2=21-40%) | 3 (3=41-60%) | 3 (3=41-60%) | 1 (1=0-20%) | 1 (1=0-20%) | 2 (2=21-40%) | 5 (5=81-100%) |
| FC(F)(F)c1cn(Cc2ncc(Cl)cn2)c(CCCCl)n1 [Compound 1.051, 5-chloro-2-[[2-(3-chloropropyl)-4-(trifluoromethyl)imidazol-1-yl]methyl]pyrimidine] | 4 (4=61-80%) | 4 (4=61-80%) | 4 (4=61-80%) | 5 (5=81-100%) | 2 (2=21-40%) | 5 (5=81-100%) | 5 (5=81-100%) | 5 (5=81-100%) |
| CCCCc1nc(C(F)(F)F)cn1Cc1ccc(Cl)cn1 [Compound 1.081] | 1 (1=0-20%) | 2 (2=21-40%) | 3 (3=41-60%) | 3 (3=41-60%) | 1 (1=0-20%) | 1 (1=0-20%) | 2 (2=21-40%) | 2 (2=21-40%) |
| CCCCc1nc(C(F)(F)F)cn1Cc1ncc(Cl)cc1F [Compound 1.058] | 4 (4=61-80%) | 4 (4=61-80%) | 3 (3=41-60%) | 4 (4=61-80%) | 5 (5=81-100%) | 5 (5=81-100%) | 5 (5=81-100%) | 5 (5=81-100%) |
| CCCCCc1nc(C(F)(F)F)cn1Cc1ncc(Cl)cn1 [Compound 1.019] | 3 (3=41-60%) | 1 (1=0-20%) | 2 (2=21-40%) | 2 (2=21-40%) | 5 (5=81-100%) | 1 (1=0-20%) | 5 (5=81-100%) | 5 (5=81-100%) |
